Experimental data from patent US10112937B2, “P2X7 modulators and methods of use” (Janssen Pharmaceutica NV, priority 2013, dated 2018).

molecular target: human P2X7 (Homo sapiens (Human), UniProt Q99572); assay: P2X7 antagonism in human PBMCs (IL-1β release after LPS + Bz-ATP, ELISA); format: cell-based; conditions: human PBMCs, test compound 10 μM
Sequence (Q99572 whole entry): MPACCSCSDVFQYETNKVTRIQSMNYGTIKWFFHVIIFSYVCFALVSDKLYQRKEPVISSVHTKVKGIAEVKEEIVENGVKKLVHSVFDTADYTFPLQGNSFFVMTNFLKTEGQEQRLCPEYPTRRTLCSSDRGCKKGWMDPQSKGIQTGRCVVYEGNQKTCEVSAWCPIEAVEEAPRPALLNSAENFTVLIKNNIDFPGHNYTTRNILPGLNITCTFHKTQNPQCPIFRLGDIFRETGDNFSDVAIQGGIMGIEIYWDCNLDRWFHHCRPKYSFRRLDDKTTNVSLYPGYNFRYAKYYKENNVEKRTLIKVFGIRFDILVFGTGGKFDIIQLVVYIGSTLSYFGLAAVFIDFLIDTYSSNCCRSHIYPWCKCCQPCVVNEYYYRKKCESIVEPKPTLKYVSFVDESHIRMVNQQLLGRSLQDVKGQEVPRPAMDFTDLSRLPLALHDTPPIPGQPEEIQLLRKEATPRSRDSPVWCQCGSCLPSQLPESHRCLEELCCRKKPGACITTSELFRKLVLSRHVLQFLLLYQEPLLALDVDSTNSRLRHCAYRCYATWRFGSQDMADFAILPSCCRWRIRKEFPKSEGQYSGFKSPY

| Structure (SMILES) | PBMC 10 μM (% control) |
| --- | --- |
| Cc1ccnc(-n2nnc3c2CCN(C(=O)c2cccc(C(F)(F)F)c2Cl)C3C)n1 (stereo not drawn) [Example 252, (2-Chloro-3-(trifluoromethyl)phenyl)(4-methyl-1-(4-methylpyrimidin-2-yl)-6,7-dihydro-1H-[1,2,3]triazolo[4,5-c]pyridin-5(4H)-yl)methanone] | −0.8 |
| Cc1cc(C)nc(-n2nnc3c2CCN(C(=O)c2cccc(C(F)(F)F)c2Cl)C3C)n1 (stereo not drawn) [Example 253, (2-Chloro-3-(trifluoromethyl)phenyl)(1-(4,6-dimethylpyrimidin-2-yl)-4-methyl-6,7-dihydro-1H-[1,2,3]triazolo[4,5-c]pyridin-5(4H)-yl)methanone] | −2.6 |
| CCc1cccnc1-n1nnc2c1CCN(C(=O)c1cccc(C(F)(F)F)c1Cl)C2C (stereo not drawn) [Example 254, (2-Chloro-3-(trifluoromethyl)phenyl)(1-(3-ethylpyridin-2-yl)-4-methyl-6,7-dihydro-1H-[1,2,3]triazolo[4,5-c]pyridin-5(4H)-yl)methanone] | 0.9 |
| O=C(c1ccc(Cl)cc1Cl)N1CCc2c(nnn2-c2ncccn2)C1 [Example 257, (2,4-dichlorophenyl)(1-(pyrimidin-2-yl)-6,7-dihydro-1H-[1,2,3]triazolo[4,5-c]pyridin-5(4H)-yl)methanone] | 7.1 |
| CCOc1cccnc1-n1nnc2c1CCN(C(=O)c1cccc(C(F)(F)F)c1Cl)C2C (stereo not drawn) [Example 258, (2-Chloro-3-(trifluoromethyl)phenyl)(1-(3-ethoxypyridin-2-yl)-4-methyl-6,7-dihydro-1H-[1,2,3]triazolo[4,5-c]pyridin-5(4H)-yl)methanone] | −3.2 |
| Cc1cccnc1-n1nnc2c1CCN(C(=O)c1cccc(C(F)(F)F)c1Cl)C2C (stereo not drawn) [Example 259, (2-Chloro-3-(trifluoromethyl)phenyl)(4-methyl-1-(3-methylpyridin-2-yl)-6,7-dihydro-1H-[1,2,3]triazolo[4,5-c]pyridin-5(4H)-yl)methanone] | −3.5 |
| COc1cccnc1-n1nnc2c1CCN(C(=O)c1cccc(C(F)(F)F)c1Cl)C2C (stereo not drawn) [Example 260, (2-Chloro-3-(trifluoromethyl)phenyl)(1-(3-methoxypyridin-2-yl)-4-methyl-6,7-dihydro-1H-[1,2,3]triazolo[4,5-c]pyridin-5(4H)-yl)methanone] | 1.4 |
| CC1Cc2c(-c3ccnn3C)nn(C)c2CN1C(=O)c1cccc(C(F)(F)F)c1Cl (stereo not drawn) [Example 266, (2-chloro-3-(trifluoromethyl)phenyl)(1,5-dimethyl-3-(1-methyl-1H-pyrazol-5-yl)-4,5-dihydro-1H-pyrazolo[3,4-c]pyridin-6(7H)-yl)methanone] | 5.8 |
| O=C(c1ccc(Cl)cc1F)N1CCc2c(nnn2-c2cnccn2)C1 [Example 272, (4-chloro-2-fluorophenyl)(1-(pyrazin-2-yl)-6,7-dihydro-1H-[1,2,3]triazolo[4,5-c]pyridin-5(4H)-yl)methanone] | −7.6 |
| CC1c2nnn(-c3cnccn3)c2CCN1C(=O)c1cccc(C(F)(F)F)c1F (stereo not drawn) [Example 273, (2-fluoro-3-(trifluoromethyl)phenyl)(4-methyl-1-(pyrazin-2-yl)-6,7-dihydro-1H-[1,2,3]triazolo[4,5-c]pyridin-5(4H)-yl)methanone] | −2.1 |
| CC1c2nnn(-c3cnccn3)c2CCN1C(=O)c1ccc(Cl)cc1F (stereo not drawn) [Example 274, (4-chloro-2-fluorophenyl)(4-methyl-1-(pyrazin-2-yl)-6,7-dihydro-1H-[1,2,3]triazolo[4,5-c]pyridin-5(4H)-yl)methanone] | −4.8 |
| CC1c2nnn(-c3ncccn3)c2CCN1C(=O)c1ccc(Cl)cc1F (stereo not drawn) [Example 275, (4-chloro-2-fluorophenyl)(4-methyl-1-(pyrimidin-2-yl)-6,7-dihydro-1H-[1,2,3]triazolo[4,5-c]pyridin-5(4H)-yl)methanone] | −8.3 |
| Cc1c(C(=O)N2CCc3c(nnn3-c3cnccn3)C2)cccc1C(F)(F)F [Example 276, (2-methyl-3-(trifluoromethyl)phenyl)(1-(pyrazin-2-yl)-6,7-dihydro-1H-[1,2,3]triazolo[4,5-c]pyridin-5(4H)-yl)methanone] | −0.9 |
| Cc1c(C(=O)N2CCc3c(nnn3-c3ncccn3)C2C)cccc1C(F)(F)F (stereo not drawn) [Example 282, (4-methyl-1-(pyrimidin-2-yl)-6,7-dihydro-1H-[1,2,3]triazolo[4,5-c]pyridin-5(4H)-yl)(2-methyl-3-(trifluoromethyl)phenyl)methanone] | −5.5 |
| CC1c2nnn(-c3ncccn3)c2CCN1C(=O)c1ccc(Cl)cc1Cl (stereo not drawn) [Example 283, (2,4-dichlorophenyl)(4-methyl-1-(pyrimidin-2-yl)-6,7-dihydro-1H-[1,2,3]triazolo[4,5-c]pyridin-5(4H)-yl)methanone] | −6.3 |
| C[C@H]1Cc2c(nnn2-c2ccc(F)cc2)[C@H](C)N1C(=O)c1cccc(C(F)(F)F)c1Cl [Example 285, (2-chloro-3-(trifluoromethyl)phenyl)((4S,6S)-1-(4-fluorophenyl)-4,6-dimethyl-6,7-dihydro-1H-[1,2,3]triazolo[4,5-c]pyridin-5(4H)-yl)methanone] | −2.6 |
| C[C@@H]1Cc2c(nnn2-c2ccc(F)cc2)[C@H](C)N1C(=O)c1cccc(C(F)(F)F)c1Cl [Example 286, (2-chloro-3-(trifluoromethyl)phenyl)((4S,6R)-1-(4-fluorophenyl)-4,6-dimethyl-6,7-dihydro-1H-[1,2,3]triazolo[4,5-c]pyridin-5(4H)-yl)methanone] | 5.8 |
| C[C@@H]1c2nnn(-c3ccc(F)cc3)c2C[C@H](C)N1C(=O)c1cccc(C(F)(F)F)c1Cl [Example 287, (2-chloro-3-(trifluoromethyl)phenyl)((4R,6S)-1-(4-fluorophenyl)-4,6-dimethyl-6,7-dihydro-1H-[1,2,3]triazolo[4,5-c]pyridin-5(4H)-yl)methanone] | −4.1 |
| C[C@H]1Cc2c(nnn2-c2ccccc2)CN1C(=O)c1cccc(C(F)(F)F)c1Cl [Example 288, (S)-(2-chloro-3-(trifluoromethyl)phenyl)(6-methyl-1-phenyl-6,7-dihydro-1H-[1,2,3]triazolo[4,5-c]pyridin-5(4H)-yl)methanone] | 4.4 |
| C[C@@H]1Cc2c(nnn2-c2ccn[nH]2)[C@@H](C)N1C(=O)c1cccc(C(F)(F)F)c1Cl [Example 296, (2-chloro-3-(trifluoromethyl)phenyl)((4R,6R)-4,6-dimethyl-1-(1H-pyrazol-5-yl)-6,7-dihydro-1H-[1,2,3]triazolo[4,5-c]pyridin-5(4H)-yl)methanone] | 3.6 |
| C[C@@H]1Cc2c(nnn2-c2ccn[nH]2)[C@H](C)N1C(=O)c1cccc(C(F)(F)F)c1Cl [Example 297, (2-chloro-3-(trifluoromethyl)phenyl)((4S,6R)-4,6-dimethyl-1-(1H-pyrazol-5-yl)-6,7-dihydro-1H-[1,2,3]triazolo[4,5-c]pyridin-5(4H)-yl)methanone] | 2.6 |
| Cc1ccnc(-n2nnc3c2CCN(C(=O)c2cccc(C(F)(F)F)c2Cl)C3C)c1 (stereo not drawn) [Example 299, (2-chloro-3-(trifluoromethyl)phenyl)(4-methyl-1-(4-methylpyridin-2-yl)-6,7-dihydro-1H-[1,2,3]triazolo[4,5-c]pyridin-5(4H)-yl)methanone] | 1.5 |
| Cc1cc(C)nc(-n2nnc3c2CCN(C(=O)c2cccc(C(F)(F)F)c2Cl)C3C)c1 (stereo not drawn) [Example 300, (2-chloro-3-(trifluoromethyl)phenyl)(1-(4,6-dimethylpyridin-2-yl)-4-methyl-6,7-dihydro-1H-[1,2,3]triazolo[4,5-c]pyridin-5(4H)-yl)methanone] | −1.8 |
| Cc1ccc(-n2nnc3c2CCN(C(=O)c2cccc(C(F)(F)F)c2Cl)C3C)nc1 (stereo not drawn) [Example 301, (2-chloro-3-(trifluoromethyl)phenyl)(4-methyl-1-(5-methylpyridin-2-yl)-6,7-dihydro-1H-[1,2,3]triazolo[4,5-c]pyridin-5(4H)-yl)methanone] | −2.2 |
| Cc1cccc(-n2nnc3c2CCN(C(=O)c2cccc(C(F)(F)F)c2Cl)C3C)n1 (stereo not drawn) [Example 302, (2-chloro-3-(trifluoromethyl)phenyl)(4-methyl-1-(6-methylpyridin-2-yl)-6,7-dihydro-1H-[1,2,3]triazolo[4,5-c]pyridin-5(4H)-yl)methanone] | −2.8 |
| CC1c2nn(COCC[Si](C)(C)C)c(-c3ncc(F)cn3)c2CCN1C(=O)c1cccc(C(F)(F)F)c1Cl (stereo not drawn) [Example 303, (2-chloro-3-(trifluoromethyl)phenyl)(3-(5-fluoropyrimidin-2-yl)-7-methyl-2-((2-(trimethylsilyl)ethoxy)methyl)-4,5-dihydro-2H-pyrazolo[3,4-c]pyridin-6(7H)-yl)methanone] | −1.6 |
| C[C@H]1Cc2c(nnn2-c2ncc(F)cn2)CN1C(=O)c1cccc(C(F)(F)F)c1 [Example 304, (S)-(1-(5-fluoropyrimidin-2-yl)-6-methyl-6,7-dihydro-1H-[1,2,3]triazolo[4,5-c]pyridin-5(4H)-yl)(3-(trifluoromethyl)phenyl)methanone] | 3.2 |
| C[C@H]1Cc2c(nnn2-c2ncc(F)cn2)CN1C(=O)c1cc(F)cc(C(F)(F)F)c1 [Example 307, (S)-(3-fluoro-5-(trifluoromethyl)phenyl)(1-(5-fluoropyrimidin-2-yl)-6-methyl-6,7-dihydro-1H-[1,2,3]triazolo[4,5-c]pyridin-5(4H)-yl)methanone] | 2.2 |

same assay, conditions: test compound 10 μM, LPS 30 ng/ml + 0.5 mM Bz-ATP

| Structure (SMILES) | PBMC 10 μM (% control) |
| --- | --- |
| Cc1cc(C)nc(-n2nnc3c2CCN(C(=O)c2cccc(C(F)(F)F)c2Cl)C3C)n1 (stereo not drawn) [Example 253, (2-Chloro-3-(trifluoromethyl)phenyl)(1-(4,6-dimethylpyrimidin-2-yl)-4-methyl-6,7-dihydro-1H-[1,2,3]triazolo[4,5-c]pyridin-5(4H)-yl)methanone] | −2.6 |
| C[C@@H]1c2nnn(-c3ccc(F)cc3)c2C[C@H](C)N1C(=O)c1cccc(C(F)(F)F)c1Cl [Example 287, (2-chloro-3-(trifluoromethyl)phenyl)((4R,6S)-1-(4-fluorophenyl)-4,6-dimethyl-6,7-dihydro-1H-[1,2,3]triazolo[4,5-c]pyridin-5(4H)-yl)methanone] | −4.1 |
